Test results published in patent US4391978A, “Phenyl-quinolizidines” (Hoffmann-La Roche Inc., priority 1980, dated 1983).
Where a name gives a salt, the structure may show the parent alone. Read-outs that look alike come from different tables or passages of the source.

Legend:
[1] = tested on: rats trained to jump up on a vertical isolated pole; assay: Pole Climbing Test (rat): inhibition of conditioned (BCR) and unconditioned (BUR) reaction; format: in vivo; conditions: ip; for ED50: inhibition of conditioned reaction in 50% of the animals, observation time 6 hours; for ED10: inhibition of unconditioned reaction, ED10, i.p.
Procedure: "Pole Climbing" Test (rat)
For this experimental procedure there was used per dosage a group of 10 rats trained to jump up on a vertical isolated pole in the experimental cage, to escape an electroshock (unconditioned stimulus) produced via the lattice floor immediately after an acoustic signal (conditioned stimulus). The inhibition of the conditioned reaction in the case of 50% of the animals during an observation time of 6 hours is determined by the parameter ED 50 BCR, the inhibition of the unconditioned reaction is determined by the parameter ED 10 BUR.

[2] = target: T1, receptor, calf striatum ([^3 H]-spiroperidol) (Bos taurus, UniProt P20288); assay: Spiroperidol-Binding Test (in vitro)
T1 construct: calf striatum was used as the receptor; from tissue; host or cells: calf striatum

[3] = tested on: apomorphine-induced vomiting (dog); assay: Antiemetic Activity (dog): apomorphine-induced vomiting; format: in vivo, dog (Beagle hounds); conditions: Canis lupus familiaris, po, 1 hour before apomorphine hydrochloride 0.1 or 0.3 mg/kg s.c., 50% of animals protected, read-out: Anti-apomorphine emesis ED50 p.o.
[4] = 50% detachment of specific binding of [^3 H]-spiroperidol, calf striatum, in vitro, read-out: Spiroperidol-Binding IC50

T1 sequence (P20288 whole entry): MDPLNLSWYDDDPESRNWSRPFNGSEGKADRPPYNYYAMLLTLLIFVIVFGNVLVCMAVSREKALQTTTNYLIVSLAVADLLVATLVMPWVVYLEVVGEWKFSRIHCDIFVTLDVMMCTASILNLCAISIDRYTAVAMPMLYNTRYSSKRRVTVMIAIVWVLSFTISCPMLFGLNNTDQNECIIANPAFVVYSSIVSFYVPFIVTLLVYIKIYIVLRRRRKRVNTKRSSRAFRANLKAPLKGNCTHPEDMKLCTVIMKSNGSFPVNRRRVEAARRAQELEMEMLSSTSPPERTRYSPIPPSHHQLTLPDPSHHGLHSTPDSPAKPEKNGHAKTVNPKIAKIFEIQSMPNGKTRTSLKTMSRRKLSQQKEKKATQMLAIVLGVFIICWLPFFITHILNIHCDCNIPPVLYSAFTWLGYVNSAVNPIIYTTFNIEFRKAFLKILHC

`O=C(N[C@@H]1CCN2C[C@@H](c3ccccc3Cl)CC[C@@H]2C1)c1cccs1` (relative stereo) [rac-N-((9aβH)-7β-(o-chlorophenyl)octahydro-2H-quinolizin-2α-yl)-2-thiophenecarboxamide] gave an ED50 [1] of 18 mg/kg, an ED10 [1] of 25 mg/kg and an IC50 [2, 4] of 123 nM.

With `O=c1[nH]c2cc(Br)ccc2n1[C@@H]1CCN2C[C@@H](c3ccccc3F)CC[C@@H]2C1` (relative stereo) [rac-1-[(9aβH)--7β-(o-Fluorophenyl)-octahydro-2H--quinolizin-2α-yl]-5-bromo-2-benzimidazolinone.HCl] the ED50 [1] was 0.08 mg/kg, the ED10 [1] was 0.1 mg/kg and the IC50 [2] was 3.8 nM.

For `COc1ccc(S(N)(=O)=O)cc1C(=O)N[C@@H]1CCN2C[C@@H](c3ccccc3Cl)CC[C@@H]2C1` (relative stereo) [rac-N-((9aβH)-7β-(o-chlorophenyl)octahydro-2H-quinolizin-2α-yl)-5-sulfamoyl-o-anisamide], the ED50 [3] was 0.8 mg/kg.

Molecule `O=C1CCCN1C(=O)N[C@@H]1CCN2C[C@@H](c3ccccc3Cl)CC[C@@H]2C1` (relative stereo) [rac-N-((9aβH)-7β-(o-chlorophenyl)octahydro-2H-quinolizin-2α-yl)-2-oxo-1-pyrrolidinecarboxamide] has an ED50 [1] of 23 mg/kg and an ED10 [1] greater than 30 mg/kg.

In the case of `CCS(=O)(=O)c1ccc(OC)c(C(=O)N[C@@H]2CCN3C[C@@H](c4ccccc4Cl)CC[C@@H]3C2)c1` (relative stereo) [rac-N-((9aβH)-7β-(o-chlorophenyl)octahydro-2H-quinolizin-2α-yl)-5-(ethylsulfonyl)-o-anisamide], the ED50 [1] is reported as 10 mg/kg, the ED10 [1] is reported as 10 mg/kg and the ED50 [3] is reported as 0.38 mg/kg. It also gave an IC50 [2, 4] of 135 nM.

Work on `O=C(N[C@@H]1CCN2C[C@@H](c3ccccc3Cl)CC[C@@H]2C1)C1CC1` (relative stereo) [rac-N-[(9aβH)-7β-(o-chlorophenyl)-octahydro-2H-quinolizin-2α-yl]-cyclopropanecarboxamide] yielded an ED50 [1] of 6 mg/kg, an ED10 [1] of 5.5 mg/kg and an IC50 [2, 4] of 550 nM.

Work on `O=C(N[C@@H]1CCN2C[C@@H](c3ccccc3Cl)CC[C@@H]2C1)c1ccc(F)cc1` (relative stereo) [rac-N-((9aβH)-7β-(o-chlorophenyl)octahydro-2H-quinolizin-2α-yl)-p-fluorobenzamide] yielded an ED50 [1] of 12 mg/kg, an ED10 [1] of 5.5 mg/kg and an IC50 [2, 4] of 67 nM.

`N#Cc1ccc2c(c1)[nH]c(=O)n2[C@@H]1CCN2C[C@@H](c3ccccc3F)CC[C@@H]2C1` (relative stereo) [rac-1-[(9aβH)--7β-(o-Fluorophenyl)-octahydro-2H--quinolizin-2α-yl]-5-cyano-2-benzimidazolinone.HCl] was tested, and the ED50 [1] was 0.65 mg/kg, the ED10 [1] was 1 mg/kg and the IC50 [2] was 50 nM.

For `COc1cc(N)c(Cl)cc1C(=O)N[C@@H]1CCN2C[C@@H](c3ccccc3Cl)CC[C@@H]2C1` (relative stereo) [rac-4-amino-5-chloro-N-[(9aβH)-7β-(o-chlorophenyl)-octahydro-2H-quinolizin-2α-yl]-o-anisamide], the ED50 [1] was 12.5 mg/kg, the ED10 [1] was 12.5 mg/kg and the ED50 [3] was 2.3 mg/kg. The IC50 [2, 4] was 30 nM.

For `O=C(c1ccc(F)cc1)[C@@H]1CCN2C[C@@H](c3ccccc3Cl)CC[C@@H]2C1` (relative stereo) [rac-[(9aβH)-7β-(o-chlorophenyl)-octahydro-2H-quinolizin-2α-yl]p-fluorophenylketone], the ED50 [1] was 3 mg/kg, the ED10 [1] was 3 mg/kg and the IC50 [2, 4] was 11 nM.

`O=c1[nH]c2cc(I)ccc2n1[C@@H]1CCN2C[C@@H](c3ccccc3F)CC[C@@H]2C1` (relative stereo) [rac-1-[(9aβH)-7β-(o-fluorophenyl)-octahydro-2H-quinolizin-2α-yl]-5-iodo-2-benzimidazolinone] gave an ED50 [1] of 0.1 mg/kg, an ED10 [1] of 0.055 mg/kg and an IC50 [2] of 8.6 nM.
